The nature of experiment [1]: Inhibition of HCV BB7 NS5B polymerase after 15 mins. More on the design: species or system Hepacivirus hominis.
Experiment [2] can be described thus: Inhibition of HCV BK NS5B polymerase after 15 mins. On the set-up: species or system Hepatitis C virus (isolate BK).
The test system of experiment [3] is Hepatitis C virus. The experiment can be described thus: Antiviral activity against HCV genotype 1b infected in human Huh7 cells assessed as reduction of viral RNA level after 3 days by RT-PCR method. In kind it is functional, organism-based, Hepacivirus hominis. The following applies: Huh-7, 72 h.
Experiment [4] concerns Hepatitis C virus. The experiment in a line: Antiviral activity against HCV genotype 1b infected in human Huh7 cells assessed as decrease in viral NS5A levels after 3 days by ELISA. It counts as functional, organism-based, Hepacivirus hominis. The following applies: Huh-7, 72 h. In general terms: An ELISA detects its analyte on a solid surface through an enzyme-linked reagent.

Regarding `CC[C@H](C)[C@]1(CC(=O)O)OCCc2c1[nH]c1c(C)c(OCCn3cccn3)cc(C#N)c21`, the IC50 in experiment [1] came to 0.003 µM; in experiment [2], 0.012 µM. The EC50 with Hepatitis C virus [3] was 0.02 µM.
As for `CCC[C@]1(CC(=O)O)OCCc2c1[nH]c1c(C)c(OCCn3cccn3)cc(C#N)c21`, the IC50 in experiment [1] and in experiment [2] was 0.005 µM in each case.
For the compound `CCC[C@]1(CC(=O)O)OCCc2c1[nH]c1c(C)c(OCc3cc(C)on3)cc(C#N)c21`, the figures for the concentration for half-maximal inhibition (IC50) in experiment [1] and in experiment [2] were 0.008 µM and 0.006 µM, respectively. The EC50 with Hepatitis C virus [4] is 0.48 µM.
Taken in the same sequence, the figures for `CCC[C@]1(CC(=O)O)OCCc2c1[nH]c1c(C)c(OCc3cc(C)n(C)n3)cc(C#N)c21` were 0.02 µM, 0.03 µM and 0.76 µM.
For `CCC[C@]1(CC(=O)O)OCCc2c1[nH]c1c(C)c(OC[C@H](C)n3cccn3)cc(C#N)c21` the same measures were 0.003 µM, 0.003 µM and 0.12 µM.
For `CCC[C@]1(CC(=O)O)OCCc2c1[nH]c1c(C)c(OC[C@@H](C)n3cccn3)cc(C#N)c21` the same measures were 0.007 µM, 0.007 µM and 0.34 µM.
Take `CC[C@H](C)[C@]1(CC(=O)O)OCCc2c1[nH]c1c(C)c(OC[C@H](C)n3cccn3)cc(C#N)c21`: the IC50 in experiment [1] and in experiment [2] was 0.002 µM in each case. In addition, the EC50 with Hepatitis C virus [3] is 0.02 µM.
`CCC[C@]1(CC(=O)O)OCCc2c1[nH]c1c(C)ccc(C#N)c21`: the IC50 is 0.4 µM in experiment [1] and 0.3 µM in experiment [2].
Turning to `CCCC1(CC(=O)O)OCCc2c1[nH]c1c(C)c(C(=O)NC)cc(C#N)c21` (racemic), the IC50 is 0.97 µM in experiment [1] and 1.3 µM in experiment [2]. Besides, the EC50 with Hepatitis C virus [4] was > 100 µM.
Consider `CCCC1(CC(=O)O)OCCc2c1[nH]c1c(C)c(C(=O)N(C)C)cc(C#N)c21` (racemic), for which the results for the IC50 in experiment [1] and in experiment [2] were 20 µM and 16 µM, respectively. Moreover, the EC50 in the experiment with Hepatitis C virus [4] was > 100 µM.
In the case of `CCCNC(=O)c1cc(C#N)c2c3c([nH]c2c1C)C(CCC)(CC(=O)O)OCC3` (racemic), the results for the IC50 in experiment [1] and in experiment [2] were 2 µM and 3 µM, respectively. Moreover, the EC50 with Hepatitis C virus [4] was > 100 µM.
In the case of `CCCC1(CC(=O)O)OCCc2c1[nH]c1c(C)c(C(=O)NCc3ccccc3)cc(C#N)c21` (racemic), the figures for the IC50 in experiment [1] and in experiment [2] were 0.67 µM and 0.98 µM, respectively. In addition, the EC50 with Hepatitis C virus [4] was > 100 µM.
For `CCCC1(CC(=O)O)OCCc2c1[nH]c1c(C)c(C(=O)NCc3ccc4c(c3)OCO4)cc(C#N)c21` (racemic) the same measures were 0.3 µM, 0.54 µM and 56 µM.
Taken in the same sequence, the figures for `CCCC1(CC(=O)O)OCCc2c1[nH]c1c(C)c(C(=O)NCCc3ccccn3)cc(C#N)c21` (racemic) were 0.64 µM, 1.2 µM and > 100 µM.
In the case of `CCCC1(CC(=O)O)OCCc2c1[nH]c1c(C)c(C(=O)NCCc3ncc[nH]3)cc(C#N)c21` (racemic), the IC50 in experiment [1] was found to be 0.56 µM; in experiment [2], 0.86 µM. Moreover, in the experiment on Hepatitis C virus [4], the EC50 is > 100 µM.
For `CCCC1(CC(=O)O)OCCc2c1[nH]c1c(C)c(O)cc(C#N)c21` (racemic) the same measures were 0.2 µM, 0.26 µM and 47 µM.
For `CCCC1(CC(=O)O)OCCc2c1[nH]c1c(C)c(OC)cc(C#N)c21` (racemic) the same measures were 0.13 µM, 0.36 µM and 20 µM.
For `CCCC1(CC(=O)O)OCCc2c1[nH]c1c(C)c(OCC)cc(C#N)c21` (racemic) the same measures were 0.07 µM, 0.11 µM and 3.5 µM.
Take `CCCOc1cc(C#N)c2c3c([nH]c2c1C)C(CCC)(CC(=O)O)OCC3` (racemic): the IC50 in experiment [1] and in experiment [2] was 0.07 µM in each case. The EC50 with Hepatitis C virus [4] amounted to 2.9 µM.
With `CCCC1(CC(=O)O)OCCc2c1[nH]c1c(C)c(OC(C)C)cc(C#N)c21` (racemic), the values for the IC50 in experiment [1] and in experiment [2] were 0.22 µM and 0.48 µM, respectively. Also, the EC50 in the experiment with Hepatitis C virus [4] came out at 19.7 µM.
As to `CCCC1(CC(=O)O)OCCc2c1[nH]c1c(C)c(OCCOC)cc(C#N)c21` (racemic), the figures for the IC50 in experiment [1] and in experiment [2] were 0.09 µM and 0.04 µM, respectively. In addition, the EC50 with Hepatitis C virus [4] came out at 4.9 µM.
As to `CCCC1(CC(=O)O)OCCc2c1[nH]c1c(C)c(OCCN3CCCC3)cc(C#N)c21` (racemic), the IC50 in experiment [1] is 0.95 µM; in experiment [2], 1.1 µM. The EC50 with Hepatitis C virus [4] was found to be 26 µM.
For `CCCC1(CC(=O)O)OCCc2c1[nH]c1c(C)c(OCc3ccccn3)cc(C#N)c21` (racemic) the same measures were 0.02 µM, 0.02 µM and 0.39 µM.
For `CCCC1(CC(=O)O)OCCc2c1[nH]c1c(C)c(OCCc3ccncc3)cc(C#N)c21` (racemic) the same measures were 0.23 µM, 0.31 µM and 8.3 µM.
For `CCCC1(CC(=O)O)OCCc2c1[nH]c1c(C)c(OCc3cnccn3)cc(C#N)c21` (racemic) the same measures were 0.02 µM, 0.019 µM and 1.6 µM.

For orientation: IC50 means the point on the concentration scale where inhibition reaches its midpoint. The low end stands for greater potency in that assay, the high end for weaker potency in that assay. One may read the EC50 as the concentration needed to bring the measured effect to its halfway point.

The values above are taken from ChEMBL document CHEMBL1777733, “The discovery and structure-activity relationships of pyrano[3,4-b]indole-based inhibitors of hepatitis C virus NS5B polymerase” (Bioorg Med Chem Lett, 2011).
